# Records with an inconclusive call do not appear. Activity calls are given as the source filed them. No rule for the calls is given here.
# System: M. tuberculosis H37Rv growth inhibition
# Assay: Confirmatory growth inhibition assay against Mycobacterium tuberculosis H37Rv, potency (AID 1949);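 also: bacteria grown 7 days with compound before Alamar blue readout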
row,SMILES,IC50
1,O=C(Nc1ccc(C(F)(F)F)cc1)Nc1cccc(Cl)c1,0.2 µg/mL
2,COc1cc2cc(-c3nc4ccccc4[nH]3)c(N)nc2cc1OC,3.24 µg/mL
3,Cc1cc(OC(F)F)ccc1NC(=O)Nc1ccc([N+](=O)[O-])cc1,22.9 µg/mL
4,COC(=O)C1=C(C)NC2=C(C(=O)CC(c3ccccc3)C2)C1c1ccccc1Br (configuration not stated),7.5 µg/mL
5,O=c1c2ccccc2[nH]c(=S)n1CCCN1CCN(c2cccc(Cl)c2)CC1,2.46 µg/mL
6,Cc1ccccc1OCCCCn1cnc2ccccc21,6.34 µg/mL
7,CCCn1c(NCc2ccc(Br)cc2)nc2ccccc21,4.3 µg/mL
8,O=C(NC1CC1c1ccccc1)C12CC3CC(CC(C3)C1)C2 (configuration not stated),14.6 µg/mL
9,FC(F)(F)c1nnc2n1Nc1nc3ccccc3nc1S2,4.52 µg/mL
10,O=C(CCNc1cccc(Br)c1)c1cccs1,5.43 µg/mL
11,CCN(CC)c1ccc(NC(=S)NCCc2ccc(OC)c(OC)c2)cc1,1.68 µg/mL
12,O=C1c2cccc3cccc(c23)C(=O)N1c1ccc2[nH]c(=O)[nH]c2c1,33 µg/mL
13,CC(=O)Oc1cccc2ccc(/C=C/c3c(F)cccc3Cl)nc12,< 0.1 µg/mL
14,CC(C)c1ccc(OCC(=O)Nc2nc(C(C)(C)C)cs2)cc1,3.87 µg/mL
15,Cc1ccc2[nH]c3c(c2c1)CCCC3NCC(O)Cc1ccccc1 (configuration not stated),6.03 µg/mL
16,Cc1ccc(NS(=O)(=O)c2ccc(NC(=S)NC(=O)c3ccc(F)cc3)cc2)c(C)c1,8.09 µg/mL
17,COc1ccc(C)cc1NC(=O)c1ccc(Cc2ccc(C)cc2)o1,2.71 µg/mL
18,O=C(CC1(O)C(=O)N(CCc2ccccc2)c2ccc(Cl)cc21)c1cccnc1 (configuration not stated),6.05 µg/mL
19,CCOc1ccc(OCC(=O)Nc2cccc(F)c2)cc1,< 0.1 µg/mL
20,Cc1ccc(N2CCN(CCNC(=S)Nc3cccc(C)c3C)CC2)c(Cl)c1,8.3 µg/mL
21,Cc1ccc(C(=O)Oc2ccc(Cl)c3cccnc23)cc1[N+](=O)[O-],0.94 µg/mL
22,O=C(CSc1ccc(C(F)(F)F)cc1[N+](=O)[O-])OC1CCCCC1,1.26 µg/mL
23,Cc1ccc(-c2cc(C(F)F)n3ncc(C(=O)N4CCc5ccccc5C4)c3n2)cc1,38.3 µg/mL
24,CCS(=O)(=O)c1nnnn1-c1ccccc1F,> 50 µg/mL (inactive)

row,SMILES,IC50
1,CCOC(=O)COc1ccc2oc(C)c(C(=O)OC)c2c1,6.25 µg/mL
2,CSc1ncc(C(=O)NCc2ccco2)cn1,3.04 µg/mL
3,COc1ccc(N/C(N)=N/c2nc(-c3cccs3)cc(C(F)(F)F)n2)cc1,> 50 µg/mL (inactive)
4,CCOC(=O)c1ccc(NC(=S)NCCN2CCc3ccccc3C2)cc1,31 µg/mL
5,O=C1NC(=O)N(c2ccc(Cl)cc2)C(=O)/C1=C\c1ccc([N+](=O)[O-])s1,5.58 µg/mL
6,CCC(=O)Oc1cccc2ccc(/C=C/c3ccc4c(c3)OCO4)nc12,0.17 µg/mL
7,CCC(C)c1ccc(OCC(=O)NC2C3CC4CC(C3)CC2C4)cc1 (configuration not stated),7.97 µg/mL
8,COc1cccc(NC(=O)c2c(NC(=O)c3cccnc3)sc3c2CCC3)c1,0.1 µg/mL
9,Cc1nc2ccccc2n1CCCOc1ccc(Cl)cc1,4.87 µg/mL
10,CCOC(=O)COc1ccc2c3c(c(=O)oc2c1C)CCC3,> 50 µg/mL (inactive)
11,COC(=O)COc1ccc(NC(=O)c2ccccc2C)cc1,< 0.1 µg/mL
12,CC1CCCCC1NC(=O)CSc1nc2ccccc2c(=O)[nH]1 (configuration not stated),18.4 µg/mL
13,CCC(=O)Nc1ccc2oc(-c3c(F)c(F)c(F)c(F)c3F)nc2c1,10.5 µg/mL
14,O=C(CCN1CCc2ccccc2CC1)c1ccc2c(c1)OCCO2,8.36 µg/mL
15,CC(C)(C)c1ccc(C(=O)Nc2nccs2)cc1Br,0.37 µg/mL
16,COc1ccc(CCNc2nc(-c3ccccn3)cs2)cc1OC,0.72 µg/mL
17,CCOc1cccc2cc(-c3nc4ccc(C)cc4[nH]3)c(=O)oc12,< 0.1 µg/mL
18,COCc1nc2ccccc2n1CCCOc1ccc(C)cc1,8.25 µg/mL
19,COc1ccc(NC(=O)c2ccccc2Oc2ccccc2)c(OC)c1,< 0.1 µg/mL
20,CC1CCN(c2ccc(N)cc2)CC1,5.71 µg/mL
21,Cc1ccc(Cl)cc1N1CCN(CC(O)COC2CC(C)CC(C)(C)C2)CC1 (configuration not stated),7.82 µg/mL
22,Cc1ccc(OCC(O)CN2CCN(CC(O)COc3ccc(C)cc3C)CC2)c(C)c1 (configuration not stated),3.27 µg/mL
23,O=[N+]([O-])c1cccc(NC(=S)Nc2ccc(Cl)c(Cl)c2)c1,0.3 µg/mL
24,OC(COc1ccccc1Cl)CN1CCN(C(c2ccccc2)c2ccccc2)CC1 (configuration not stated),2.51 µg/mL

row,SMILES,IC50
1,CC(C)c1ccc(NC(=S)NC(=O)c2ccccc2F)cc1,2.56 µg/mL
2,O=C(CNS(=O)(=O)c1cccc(C(F)(F)F)c1)N1CCN(c2ccc(Cl)c(Cl)c2)CC1,4.79 µg/mL
3,CCCCOc1ccc(S(=O)(=O)Nc2ccc(I)cc2)cc1,2.84 µg/mL
4,CC(C)OC(=O)CSc1nnc(-c2ccc(N(C)C)cc2)o1,< 0.1 µg/mL
5,Cc1c(Cl)cccc1NC(=O)c1ccc(OC(C)C(=O)OC2CCCCC2)cc1 (configuration not stated),< 0.1 µg/mL
6,CCN(CC)C(=S)NC(=O)c1ccc(Cl)cc1,1.43 µg/mL
7,O=S1(=O)C=CC2ON=C(c3ccc(C(F)(F)F)cc3)C21 (configuration not stated),3.08 µg/mL
8,COc1cccc(C2=CC(c3c(F)cccc3Cl)n3nnnc3N2)c1 (configuration not stated),7.55 µg/mL
9,CCOC(=O)COc1cc2oc(=O)cc(CC)c2cc1Cl,1.43 µg/mL
10,CCN1CCN(c2ccc([N+](=O)[O-])c(-n3nc(-c4ccc(Cl)cc4)c4ccccc4c3=O)c2)CC1,5.6 µg/mL
11,O=C(Nc1ccccc1N1CCCC1)c1ccc(-c2cccc(Cl)c2)o1,6.01 µg/mL
12,Clc1ccc(C2=CC(c3ccc(Cl)cc3)n3nnnc3N2)cc1 (configuration not stated),2.07 µg/mL
13,O=C(Nc1ccc(F)c(Cl)c1)C12CC3CCC(CC(C3)C1)C2,< 0.1 µg/mL
14,O=C(c1ccccc1)c1ccc(OCC(O)Cn2cnc3ccccc32)cc1 (configuration not stated),1.51 µg/mL
15,Cc1ccc(OCCN2CCN(c3nc(NCc4ccco4)c4ccccc4n3)CC2)cc1,6.3 µg/mL
16,O=C1c2cccc3cc([N+](=O)[O-])cc(c23)C(=O)N1CCO,> 50 µg/mL (inactive)
17,COc1ccc(C(=O)Oc2ccc(C(=O)OCc3ccccc3)cc2)cc1OC,1.39 µg/mL
18,CCC(=O)N1CCN(c2ccc(Cl)cc2NC(=O)CC23CC4CC(CC(C4)C2)C3)CC1,6.98 µg/mL
19,CN1CCN(c2ccc(NC(=O)c3cccc(I)c3)cc2)CC1,> 50 µg/mL (inactive)
20,CN(C)S(=O)(=O)c1ccc(NC(=S)NC(=O)CCCOc2ccc(Cl)cc2Cl)cc1,5.38 µg/mL
21,COC(=O)C(C)Oc1ccc2c(=O)c(Oc3ccccc3Cl)coc2c1 (configuration not stated),8.57 µg/mL
22,C=CCn1c(-c2cccs2)nc2ccccc21,1.86 µg/mL
23,Cc1ccc(NC(=O)C(Cl)Cl)cc1[N+](=O)[O-],2.18 µg/mL
24,Cc1cc(OCC(O)CN2CCN(c3ccc(F)cc3)CC2)ccc1C(C)C (configuration not stated),11.7 µg/mL

row,SMILES,IC50
1,C=CCc1cc(C)ccc1OCCCn1ccnc1,3.52 µg/mL
2,CC(=O)Oc1cccc2ccc(/C=C/c3cccc(Br)c3)nc12,< 0.1 µg/mL
3,CCC(=O)Oc1ccc(C(=O)Nc2cc3oc4ccccc4c3cc2OC)cc1,1.46 µg/mL
4,CC(C)COCc1ccc(O)c2ncccc12,> 50 µg/mL (inactive)
5,O=C(CCNc1ccc(F)c(Cl)c1)c1cccs1,4.3 µg/mL
6,O=C(OCc1ccccn1)c1ccc(COc2cccc3ccccc23)cc1,6.98 µg/mL
7,N#Cc1c(SCCN2CCCC2)nc2c(c1C(F)(F)F)CC(c1ccccc1)CC2 (configuration not stated),47.4 µg/mL
8,Cc1cc(Cl)ccc1NC(=O)CCc1ccc(S(=O)(=O)NCC(C)C)cc1,0.53 µg/mL
9,CC(=O)c1cccc(-n2nnnc2S(C)(=O)=O)c1,2.75 µg/mL
10,O=[N+]([O-])c1ccc(NC(=S)NCc2ccc(F)cc2)cc1,4.86 µg/mL
11,Cc1nc(Nc2nc3c(c(=O)[nH]2)CCCC3)nc2c(C)cccc12,28.1 µg/mL
12,Cc1cc(C(=O)Oc2ccccc2)ccc1[N+](=O)[O-],1.87 µg/mL
13,COc1cc(CNc2nccs2)cc(Br)c1OCc1ccc(F)cc1,11.5 µg/mL
14,CC(Sc1nnc(N)s1)C(=O)Nc1nc2c(s1)CCCC2 (configuration not stated),0.75 µg/mL
15,Cc1ccn2c(-c3csc(Nc4ccccn4)n3)c(C)nc2c1,0.24 µg/mL
16,COc1ccc(-c2nnc(SCC(=O)NCCc3ccccc3)o2)cc1,< 0.1 µg/mL
17,CCn1c(NCc2c(O)ccc3ccccc23)nc2ccccc21,2.05 µg/mL
18,O=C(NC(=S)N1CCCC1)c1ccc(-c2ccccc2)cc1,1.43 µg/mL
19,CC(=O)Oc1c(/C=C(\C#N)C(N)=O)[nH]c2ccccc12,5.98 µg/mL
20,COC(=O)c1ccc(OC(=O)c2c(F)c(F)c(F)c(F)c2F)cc1,9.14 µg/mL
21,Cc1ccccc1OCCOc1cccc(C=O)c1,6.79 µg/mL
22,CCCOc1ccc(Nc2cc(C)nc3ccc(Cl)cc23)cc1,0.74 µg/mL
23,O=C(O)c1ccc(C2Nc3ccc([N+](=O)[O-])cc3C3c4ccccc4CC23)cc1 (configuration not stated),> 50 µg/mL (inactive)
24,Cc1ccccc1NC(=O)c1cc(Cl)ccc1O,2.6 µg/mL

row,SMILES,IC50
1,Cc1ccc(-c2nnc3sc(Cc4ccccc4)nn23)cc1,< 0.1 µg/mL
2,COc1cc2c(cc1OC)C(c1ccc(-c3ccc(Cl)c(Cl)c3)o1)=NCC2,6.98 µg/mL
3,Cc1cccc(OCc2nnc(SCC(=O)NCCc3ccccc3)o2)c1,0.46 µg/mL
4,CCC(C)Oc1ccc(C(=O)NC(=S)Nc2ccc(NC(=O)c3ccco3)cc2)cc1 (configuration not stated),0.36 µg/mL
5,O=C(Nc1ccc(F)c(Cl)c1)c1ccc([N+](=O)[O-])o1,< 0.1 µg/mL
6,O=C(CSc1ccc(Br)cc1)Nc1cccc(Cl)c1,1.51 µg/mL
7,COc1ccccc1NC(=O)C1=C(C)NC(SCC(=O)Nc2ccccc2[N+](=O)[O-])=C(C#N)C1c1ccccc1F (configuration not stated),12 µg/mL
8,CCCc1cc2c(-c3ccccc3)cc(=O)oc2cc1OCC,> 50 µg/mL (inactive)
9,COc1ccc(C2=CC(c3ccccc3Cl)n3nnnc3N2)cc1OC (configuration not stated),24.1 µg/mL
10,Cc1ccc(Cl)cc1N1CCN(C(=O)CC23CC4CC(CC(C4)C2)C3)CC1,4.43 µg/mL
11,CC1=NN(c2nc3ccccc3s2)C(=O)C1Cc1cccc2ccccc12 (configuration not stated),0.3 µg/mL
12,Cc1cc(Nc2ccc(N(C)C)cc2)c2cccc(C)c2n1,4.43 µg/mL
13,Cc1c(Cl)c(C(F)(F)F)nn1CCCNC(=S)NCc1ccc(Cl)cc1,11.2 µg/mL
14,CC1CCc2nc3sc4c(c3c(N)c2C1)CCCC4 (configuration not stated),1.06 µg/mL
15,Cc1cc(C)c(N2CCN(S(=O)(=O)c3ccc(Cl)cc3)CC2)c(C)c1,> 50 µg/mL (inactive)
16,Cc1oc2ccc(OC(=O)c3ccc(F)cc3)cc2c1C(=O)OC(C)C,2.4 µg/mL
17,Cc1cc(C(=O)NCC23CC4CC(CC(C4)C2)C3)ccc1[N+](=O)[O-],0.42 µg/mL
18,O=Cc1ccc(Sc2nnc(-c3ccccc3)o2)o1,3.39 µg/mL
19,CCOC(=O)COc1ccc2cc(-c3nc4ccccc4s3)c(=O)oc2c1,1.35 µg/mL
20,CCOc1ccc(-c2[nH]ncc2-c2ccccc2)c(O)c1C,4.39 µg/mL
21,O=C(NC(=S)N1CCCCCC1)c1ccc([N+](=O)[O-])cc1,1.42 µg/mL
